Experimental data published in PMC12549899 (Nature Communications, 2025).
“And” between values parts separate entries of the source, which are not always exact repeats. Identical values can stand only once.

Biological target: T1, DrOTOP1 M133W (Danio rerio, UniProt Q7ZWK8, M133W)
T1 construct: A previously generated codon-optimized full-length DrOTOP1[8]; (UniProt: Q7ZWK8) construct; expressed in transfected cells; host or cells: HEK-293 (CRL-1573, ATCC)
T1 sequence (Q7ZWK8 1-586 M133W): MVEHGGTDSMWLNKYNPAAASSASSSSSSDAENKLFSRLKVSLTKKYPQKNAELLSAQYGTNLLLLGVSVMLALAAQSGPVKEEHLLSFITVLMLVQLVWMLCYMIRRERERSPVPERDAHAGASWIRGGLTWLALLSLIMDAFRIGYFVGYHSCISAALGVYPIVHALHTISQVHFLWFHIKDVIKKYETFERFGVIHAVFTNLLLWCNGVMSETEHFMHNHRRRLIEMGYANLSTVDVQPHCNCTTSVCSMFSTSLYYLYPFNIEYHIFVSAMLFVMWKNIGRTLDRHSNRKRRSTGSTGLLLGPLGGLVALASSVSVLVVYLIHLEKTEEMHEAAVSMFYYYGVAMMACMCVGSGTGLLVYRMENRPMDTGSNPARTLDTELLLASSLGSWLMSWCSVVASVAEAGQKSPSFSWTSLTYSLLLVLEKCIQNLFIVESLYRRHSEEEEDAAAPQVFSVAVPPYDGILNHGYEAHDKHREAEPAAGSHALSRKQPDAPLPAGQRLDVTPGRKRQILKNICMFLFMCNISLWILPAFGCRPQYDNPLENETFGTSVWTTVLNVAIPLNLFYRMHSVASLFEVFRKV
Assay: Whole-cell patch-clamp, inhibition of acid-evoked currents, DrOTOP1 M133W
Type: cell-based, zebrafish (Danio rerio)
Description: To functionally test the significance of the two binding sites identified by cryo-EM, we generated point mutations of DrOTOP1 using the binding poses and conformational changes observed in DrOTOP1_C2.2 to guide our mutations. As per the binding pose that best fits our cryo-EM density, C2.2 forms the following interactions in the outer site: hydrophobic packing against many non-polar residues W126, G130, M133, L134, F271, F570, and M573, and π-stacking with W532 (Fig. 5A). In addition, C2.2 could potentially form H-bonds with E267, if the sidechain is protonated or a water bridge is present, and with H574 if it moves closer (Fig. 5A). Likewise, C2.36 presents a heterocyclic nitrogen that can potentially form a H-bond with E267, similarly, provided a protonation or water bridge is present (Fig. 5B). In addition, C2.36 forms a T-shaped π-stacking interaction with H574, whose sidechain has rotated 90 degrees (compared to DrOTOP1_apo), presumably to accommodate the interaction (Fig. 5B). Considering other inhibitors discovered from the second round of screening, many contain functional groups like the carbonyl groups of Group 1 molecules and the heterocyclic nitrogen atoms of Group 2 molecules (Supplementary Fig. 3E), that can potentially form similar H-bonds with E267 as C2.2 and C2.36, assuming the binding modes are similar. In the central site, C2.2 binds with the following interactions: hydrophobic packing with residues V201, F271, A274, V278, and A388, π-stacking with F277, and H-bonding with E384 (Fig. 5C).
Each non-aromatic residue was mutated to tryptophan, which was expected to cause steric occlusion. […]
Whole-cell patch-clamp recording was performed as previously described[6],[22],[25]. Recordings were made with an Axopatch 200B amplifier, digitized with a Digidata 1322a 16-bit data acquisition system, acquired with pClamp 8.2 and analyzed with Clampfit 10 (Molecular Devices). […]

Structure (SMILES): C=C(C)COc1ccccc1NC(=O)c1nc[nH]c1C [C2.2]
- Inhibition of currents (10 µM, single cells or mean, mean): 71.39%
- Inhibition of currents (10 µM, single cells or mean, single cells): 74.2591% and 52.599% and 79.1509% and 79.3522% and 71.5803%

Structure (SMILES): O=C(/C(=N\O)c1ccccc1)c1ccccc1 [C11, benzil monoxime]
- Inhibition of currents (100 µM, single cells): 51.1084% and 50.3496% and 47.6418% and 59.4138% and 72.1088%
